“Also recorded” adds a separate entry of the source.
Legend:
bull sperm = experiment: Bovine sperm post-thaw motility (IVOS); assay type: cell-based, Holstein bulls; details: MTG 0, 100, 500, 1000 or 5000 μM in Triladyl egg yolk extender containing glycerol; 0 and 3 hr
Experimental: Semen was collected via an artificial vagina from 6 different Holstein bulls over 3 different days. The bulls were selected such that three produce sperm with good consistent freezing quality and three produce sperm that respond to cryopreservation with poorer consistency. Antibiotics were added to the neat semen and initial volume and concentration were determined using a graduated cylinder and spectrophotometry. From each collection, 5 different 500 μL aliquots of semen were extended with 1.5 mL of Triladyl egg yolk extender (Minitube; Verona, Wis.) containing glycerol. Subsequently, 2 mL of the same extender containing no MTG, 200, 1000, 2000 or 10,000 μM MTG was added to the extended semen to yield the final concentrations for MTG of 0, 100, 500, 1000 or 5000 μM. […]
(§1) For the examination, 6 straws per treatment per collection were thawed in a 37° C. water bath for at least 60 sec. For each treatment within a collection, two pools of semen were created and analyzed by combining the contents of three straws. […] The percent of motile sperm was determined on 4 different fields within each of 2 separate chambers. For viability the sperm samples were diluted 1:100 in PBS and stained with SYBR 14 ([…]) and propidium iodide (12 μM About 10,000 cells were counted using the Partec Flomax Flow Cytometer (Ft. Collins, Colo.).

bovine sperm = experiment: Bovine sperm post-thaw viability (SYBR 14 / propidium iodide flow cytometry); assay type: cell-based, Holstein bulls
Experimental: Sperm from three collections from each of 6 different bulls were frozen in the presence of MTG at the concentrations indicated on the x-axes. For each collection, two sets of three straws each were created and analyzed twice for sperm viability. Differences in sperm cell viability among the treatments were determined using analysis of variance on arcsine transformed percents and preplanned comparisons to the control of no MTG using Dunnett's method. Panel A illustrates the mean and standard errors for the 6 bulls while panels B though G illustrate the percent of viable sperm for the individuals. […]
Semen was collected via an artificial vagina from 6 different Holstein bulls over 3 different days. […] Antibiotics were added to the neat semen and initial volume and concentration were determined using a graduated cylinder and spectrophotometry. […]
as §1

Rat Sperm = experiment: Rat sperm motility after cryopreservation and thawing; assay type: cell-based, LEW/SsNHsd rat; details: addition of 477 μM MTG to lactose/egg yolk media
Experimental: The epididymides and vas deferentia were collected from one 33 week old LEW/SsNHsd rat (Harlan, Indianapolis, Ind.). Incisions were made in the tissue and the sperm were allowed to swim out, into 2 mL of a solution containing 8% lactose [w/v] (Sigma Aldrich; St. Louis, Mo.) and 23% egg yolk [v/v] from fresh eggs in distilled water (Invitrogen; Carlsbad, Calif.) for 10 min. The sperm suspension was then split with half being placed into the lactose/egg yolk solution and the other half being suspended in lactose/egg yolk solution containing 954 micromol MTG in 15 mL conical tubes. […] The 15 mL conical tubes containing the sperm samples were placed into a beaker containing ˜150 mL of 15° C. water for 10 min. […]
The sperm were loaded into 250 μL French straws (IMV; Maple Grove, Minn.; cat# AAA201), which were then sealed with an instantaneous heat sealer (model AIE-305HD; American International Electric; Whittier, Calif.) and 5 of them loaded into cassettes (Zanders Medical Supplies; Vero Beach, Fla.). […] The sperm were diluted 1:50 in Cooks Mouse Vitro Fert (Cook's; Spencer, Ind.) and motility was evaluated by counting at least 5 different fields using a video monitor connected to a microscope using a magnification of 40×. […]

Q: With `OCC(O)CS` (stereo not shown) [MTG, monothioglycerol] as the compound, how does the “overall post-thaw motility of bull sperm” value (bull sperm) read?
A: The value was “no ill effects”.

Q: What about the “post-thaw viability of bovine sperm” value (bovine sperm; MTG 0, 100, 500, 1000 or 5000 μM in egg yolk extender containing glycerol, 6 bulls, FIG. 5) of the same compound?
A: Its value is “not negatively influenced; also recorded: enhances post-thaw viability”.

Q: What about the increase of viability (bovine sperm; bovine sperm, 3 bulls with slight effect) of the same compound?
A: The increase of viability was “slight effect”.

Q: And the “rat sperm motility after thawing, effect in words” value (Rat Sperm)?
A: Its value is “increased motility”.

Source: patent publication US8420307B2, “Sperm cryoprotective media” (The Jackson Laboratory, priority 2006, dated 2013)
